Laboratory results reported in ChEMBL document CHEMBL1201862, “PubChem BioAssay data set” (2004).
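Cells were grown in 96-well plates and exposed to each compound for 48 hours at five concentrations; endpoints were interpolated linearly between bracketing concentrations, or set to the highest concentration if not reached. At the GI50, growth is halved.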 The source made the active and inactive calls. Rule as the data show it: active = GI50 up to about 1.1 µM and inactive = higher.

Key:
Assay in all cases: NCI-60 cell line screen, 48 h
BT-549 = system: BT-549
HT-29 = system: HT-29
SNB-75 = system: SNB-75
SK-MEL-28 = system: SK-MEL-28
HCT-116 = system: HCT-116
HOP-92 = system: HOP-92
OVCAR-4 = system: OVCAR-4
LOX IMVI = system: LOX IMVI
UACC-62 = system: UACC-62
UACC-257 = system: UACC-257
NCI/ADR-RES = system: NCI/ADR-RES
TK-10 = system: TK-10
SF-295 = system: SF-295
MDA-N = system: MDA-N
IGROV-1 = system: IGROV-1
ACHN = system: ACHN
M14 = system: M14
NCI-H522 = system: NCI-H522
KM12 = system: KM12
MDA-MB-435 = system: MDA-MB-435
NCI-H226 = system: NCI-H226
HOP-62 = system: HOP-62
OVCAR-8 = system: OVCAR-8
T47D = system: T47D
RXF 393 = system: RXF 393
HL-60 = system: HL-60
OVCAR-3 = system: OVCAR-3
HCT-15 = system: HCT-15
SK-MEL-5 = system: SK-MEL-5
SR = system: SR
NCI-H460 = system: NCI-H460
Malme-3M = system: Malme-3M
RPMI-8226 = system: RPMI-8226
COLO 205 = system: COLO 205
SK-OV-3 = system: SK-OV-3
SN12C = system: SN12C
A549 = system: A549
EKVX = system: EKVX
CAKI-1 = system: CAKI-1
SK-MEL-2 = system: SK-MEL-2
Hs-578T = system: Hs-578T
OVCAR-5 = system: OVCAR-5
MDA-MB-231 = system: MDA-MB-231
MCF7 = system: MCF7
SF-268 = system: SF-268
SF-539 = system: SF-539
UO-31 = system: UO-31
MOLT-4 = system: MOLT-4
SNB-19 = system: SNB-19
DU-145 = system: DU-145
SW-620 = system: SW-620
NCI-H23 = system: NCI-H23
K562 = system: K562
U-251 = system: U-251
786-0 = system: 786-0
PC-3 = system: PC-3
A498 = system: A498

Structure (SMILES): CN(C)c1ccccc1CN1CCCN(Cc2ccccc2N(C)C)C1c1ccncc1
- GI50 (BT-549): 16.9 µM (inactive)
- GI50 (HT-29): 11.6 µM (inactive)
- GI50 (SNB-75): 17.6 µM (inactive)
- GI50 (SK-MEL-28): 9.06 µM (inactive)
- GI50 (HCT-116): 11.2 µM (inactive)
- GI50 (HOP-92): 3.47 µM (inactive)
- GI50 (OVCAR-4): 15 µM (inactive)
- GI50 (LOX IMVI): 13.6 µM (inactive)
- GI50 (UACC-62): 14.4 µM (inactive)
- GI50 (UACC-257): 2.42 µM (inactive)
- GI50 (NCI/ADR-RES): 24.1 µM (inactive)
- GI50 (TK-10): 14.4 µM (inactive)
- GI50 (SF-295): 15.3 µM (inactive)
- GI50 (MDA-N): 10.3 µM (inactive)
- GI50 (IGROV-1): 14.9 µM (inactive)
- GI50 (ACHN): 24.8 µM (inactive)
- GI50 (M14): 2.33 µM (inactive)
- GI50 (NCI-H522): 13 µM (inactive)
- GI50 (KM12): 19.1 µM (inactive)
- GI50 (MDA-MB-435): 6.28 µM (inactive)
- GI50 (NCI-H226): 21.4 µM (inactive)
- GI50 (HOP-62): 15.4 µM (inactive)
- GI50 (OVCAR-8): 15.4 µM (inactive)
- GI50 (T47D): 17.7 µM (inactive)
- GI50 (RXF 393): 10.2 µM (inactive)
- GI50 (HL-60): 13 µM (inactive)
- GI50 (OVCAR-3): 14.6 µM (inactive)
- GI50 (HCT-15): 22.2 µM
- GI50 (SK-MEL-5): 5.36 µM (inactive)
- GI50 (SR): 4.91 µM (inactive)
- GI50 (NCI-H460): 14 µM (inactive)
- GI50 (Malme-3M): 10.4 µM (inactive)
- GI50 (RPMI-8226): 5.75 µM (inactive)
- GI50 (COLO 205): 14.9 µM (inactive)
- GI50 (SK-OV-3): 16.5 µM (inactive)
- GI50 (SN12C): 20.4 µM (inactive)
- GI50 (A549): 17.4 µM (inactive)
- GI50 (EKVX): 13.7 µM (inactive)
- GI50 (CAKI-1): 16.7 µM (inactive)
- GI50 (SK-MEL-2): 17.8 µM (inactive)
- GI50 (Hs-578T): 17.7 µM (inactive)
- GI50 (OVCAR-5): 14.1 µM (inactive)
- GI50 (MDA-MB-231): 14.7 µM (inactive)
- GI50 (MCF7): 15.9 µM (inactive)
- GI50 (SF-268): 18.8 µM (inactive)
- GI50 (SF-539): 16.4 µM (inactive)
- GI50 (UO-31): 5.02 µM (inactive)
- GI50 (MOLT-4): 18.1 µM (inactive)
- GI50 (SNB-19): 12.9 µM (inactive)
- GI50 (DU-145): 16.9 µM (inactive)
- GI50 (SW-620): 16.3 µM (inactive)
- GI50 (NCI-H23): 18.3 µM (inactive)
- GI50 (K562): 7.41 µM (inactive)
- GI50 (U-251): 23 µM (inactive)
- GI50 (786-0): 13.1 µM (inactive)
- GI50 (PC-3): 17.9 µM (inactive)
- GI50 (A498): 12.4 µM (inactive)
